SMILES strings stand for the structures. Read-outs that look alike come from different tables or passages of the source.

Experiment [1] addresses T1, SETD2(1434-1711) (Homo sapiens, UniProt Q9BYW2).
T1 construct: SETD2 (1434-1711) Assay; catalogue N/A
T1 sequence (Q9BYW2 1434-1711): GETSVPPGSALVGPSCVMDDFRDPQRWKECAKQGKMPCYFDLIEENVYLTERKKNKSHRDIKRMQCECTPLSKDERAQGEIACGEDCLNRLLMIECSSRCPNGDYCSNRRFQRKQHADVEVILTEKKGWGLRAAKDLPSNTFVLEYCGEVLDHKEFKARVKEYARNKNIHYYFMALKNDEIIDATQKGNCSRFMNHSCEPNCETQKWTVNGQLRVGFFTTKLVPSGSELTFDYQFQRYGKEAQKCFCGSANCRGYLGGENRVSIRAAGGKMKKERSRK
Put plainly: SETD2 (1434-1711) assay. The format is biochemical. The conditions noted are these: read-out: SETD2 (1434-1711).

Experiment [2] has as its system H3K36me3 in A549 cells. Put plainly: In-Cell Western (ICW) assay of SETD2 inhibitors (A549 assay). The experiment is classed as cell-based, human. The following applies: A549 cells, read-out: SETD2 A549. On the procedure: In-Cell Western (ICW) Assay of SETD2 Inhibitors (A549 Assay)
Representative Compounds of the Disclosure were tested in the A549 assay according the following protocol.
1. Reagents and Consumables:
Prepare plates with compounds. Seed A549 cells to the plates with compounds, 4,000 cells/well, 50 μl/well. Put the plates at room temperature on a non-vibrating surface for 20 minutes before placing in the incubator. Incubate the plate at 37° C. incubator with CO2 for 3 days. Remove plate from incubator and bring to room temperature. Blot media out of the plate and add 50 μL of ice cold 100% methanol. Incubate 30 minutes at room temperature. Remove methanol by aspiration. Wash 3× with PBST. Add 50 μL of Blocking Buffer+0.1% Tween 20. Incubate 1 hour. Remove Blocking Buffer, wash 3× with PBST. Add 20 μL of H3K36me3 (1:1000 dilution). […] Incubate overnight at 4° C. Wash plate 5× with PBS-T. Add 20 μL of DRAQ5 (1:1000) and IRDye 800CW Goat anti-Rabbit IgG (1:500). Incubate for 1 hour in the dark. Wash plate 5× with PBS-T. Wash plate 3× with water. Dry by blotting on paper towel, then centrifuge plate upside down on a thin layer of paper towels for 1 minute at 1000 rpm to remove excess reagent. Leave plate uncovered for ˜10 minutes out of direct light before reading. Read on Licor instrument.
4. Licor Instrument Settings:
Preset: Plate; Resolution: 84 μm; Quality: low; Focus offset: 4.0; 700 channel intensity: 2; and 800 channel intensity: 3.

Turning to `CCc1cc(NC(=O)c2cc3c(F)ccc(C)c3[nH]2)cc(N2CCC(N(C)C)CC2)c1` [compound 398], the IC50 in experiment [1] was 70 nM; in experiment [2] it was 2400 nM.

`Cc1ccc(F)c2cc(C(=O)Nc3cc(F)cc(C4CCN5C(=O)CCC5C4)c3)[nH]c12` (stereo not drawn) [compound 26]: the IC50 in experiment [1] came out at 10 nM; in experiment [2] it was 70 nM.

Turning to `Cc1ccc(F)c2cc(C(=O)N[C@@H]3CCCC(N4CCC5(CCNC5=O)CC4)C3)[nH]c12` (stereo partly drawn) [compound 874], the IC50 in experiment [1] was 400 nM; in experiment [2] (Homo sapiens), more than 2000 nM.

As to `Cc1ccc(F)c2cc(C(=O)Nc3cc(F)cc(N4CCN(C(=O)C(C)N(C)C)CC4)c3)[nH]c12` (stereo not drawn) [compound 43], the figures for the IC50 in experiment [1] and in experiment [2] were 7 nM and 100 nM, respectively.

Turning to `Cc1ccc(F)c2cc(C(=O)NC3CCCC(N4CCC(N(CCO)S(C)(=O)=O)C4)C3)[nH]c12` (stereo not drawn) [compound 1151], the IC50 in experiment [1] is 5800 nM; in experiment [2] it was more than 2000 nM.

Take `Cc1ccc(F)c2cc(C(=O)N[C@@H]3CCC[C@H](N4CCC(N5CCCC5=O)C4)C3)[nH]c12` (stereo partly drawn) [compound 910]: the values for the IC50 in experiment [1] and in experiment [2] (Homo sapiens) were 30 nM and 100 nM, respectively.

`COCC(=O)N1CCN(c2cccc(NC(=O)c3cc4c(F)ccc(C)c4[nH]3)c2)CC1` [compound 44]: the values for the IC50 in experiment [1] and in experiment [2] (Homo sapiens) were 40 nM and 100 nM, respectively.

As to `Cc1ccc(F)c2cc(C(=O)N[C@@H]3CCC[C@H](N4CCN(C(=O)C(C)C)CC4)C3)[nH]c12` [compound 837], the IC50 came to 20 nM in experiment [1] and 100 nM in experiment [2] (Homo sapiens).

For the compound `Cc1ccc(F)c2cc(C(=O)NC3CCCC(N4CCC(N(C)C(=O)C5COC5)C4)C3)[nH]c12` (stereo not drawn) [compound 946], the values for the IC50 in experiment [1] and in experiment [2] were 20 nM and 100 nM, respectively.

Regarding `CC(=O)N1CCN([C@@H]2CCC[C@@H](NC(=O)c3cc4c(F)ccc(C)c4[nH]3)C2)C[C@@H]1C(F)(F)F` [compound 1071], the values for the IC50 in experiment [1] and in experiment [2] (Homo sapiens) were 5200 nM and more than 2000 nM, respectively.

On to `Cc1cccnc1C(Cc1cnn(C)c1)NC(=O)c1cc2c(F)ccc(C)c2[nH]1` (stereo not drawn) [Cpd. No. 85, 4-fluoro-7-methyl-N-(2-(1-methyl-1H-pyrazol-4-yl)-1-(3-methylpyridin-2-yl)ethyl)-1H-indole-2-carboxamide], for which the results for the IC50 in experiment [1] and in experiment [2] (Homo sapiens) were 40 nM and 200 nM, respectively.

With `CCN(C(=O)CO)C1CCN(C2CCCC(NC(=O)c3cc4c(F)ccc(C)c4[nH]3)C2)C1` (stereo not drawn) [compound 1120], the IC50 in experiment [1] is 5900 nM; in experiment [2] it was more than 2000 nM.

As to `Cc1ccc(F)c2cc(C(=O)Nc3cccc(N4C[C@@H](O)[C@H](N(C)C)C4)c3)[nH]c12` [compound 154], the IC50 in experiment [1] worked out at 30 nM; in experiment [2] (Homo sapiens), 300 nM.

Regarding `CC(=O)N1CC2CCC1CN2C1CCCC(NC(=O)c2cc3c(F)ccc(C)c3[nH]2)C1` (stereo not drawn) [compound 962], the IC50 in experiment [1] is 800 nM; in experiment [2], more than 2000 nM.

As to `Cc1ccc(F)c2cc(C(=O)Nc3cccc(N4CC5(CCN(CC(F)F)CC5)C4)c3)[nH]c12` [compound 41], the figures for the IC50 in experiment [1] and in experiment [2] were 30 nM and 100 nM, respectively.

In the case of `Cc1ccc(F)c2cc(C(=O)Nc3cccc(N4C5CCC4C(=O)N(C)C5)c3)[nH]c12` (stereo not drawn) [compound 411], the IC50 in experiment [1] was 800 nM; in experiment [2], 3000 nM.

Take `Cc1ccc(F)c2cc(C(=O)Nc3cccc(-c4cnn(CCN5CCOCC5)c4)c3)[nH]c12` [compound 164]: the figures for the IC50 in experiment [1] and in experiment [2] (Homo sapiens) were 100 nM and 300 nM, respectively.

In the case of `Cc1ccc(F)c2cc(C(=O)Nc3cccc(-c4cc(N)n[nH]4)c3)[nH]c12` [compound 444], the results for the IC50 in experiment [1] and in experiment [2] were 400 nM and 5200 nM, respectively.

In the case of `C/C(=N\C#N)N1CCN([C@H]2CCC[C@@H](NC(=O)c3cc4c(F)ccc(C)c4[nH]3)C2)CC1` [compound 1116], the figures for the IC50 in experiment [1] and in experiment [2] (Homo sapiens) were 20 nM and 50 nM, respectively.

As for `Cc1cccnc1C(NC(=O)c1cc2ncccn2n1)C1CC1` (stereo not drawn) [compound 604], the values for the IC50 in experiment [1] and in experiment [2] (Homo sapiens) were more than 50000 nM and more than 25000 nM, respectively.

On to `Cc1ccc(F)c2cc(C(=O)Nc3cccc(N4CCC(N5CCC(N)CC5)CC4)c3)[nH]c12` [compound 530], for which the IC50 in experiment [1] is 7 nM; in experiment [2], more than 25000 nM.

Regarding `Cc1ccc(F)c2cc(C(=O)Nc3cccc(N4C5CCC4COC5)c3)[nH]c12` [compound 291], the values for the IC50 in experiment [1] and in experiment [2] (Homo sapiens) were 300 nM and 1100 nM, respectively.

As for `Cc1ccc(F)c2cc(C(=O)Nc3cccc(-c4cc5cnccn5c4)c3)[nH]c12` [compound 215], the results for the IC50 in experiment [1] and in experiment [2] were 70 nM and 500 nM, respectively.

For the compound `Cc1nnc(C2CCCC(NC(=O)c3cc4c(F)ccc(C)c4[nH]3)C2)o1` (stereo not drawn) [compound 975], the IC50 came out at 100 nM in experiment [1] and 400 nM in experiment [2].

Take `Cc1ccc(F)c2cc(C(=O)Nc3cc(F)cc([C@@H]4CCN5C(=O)CC[C@H]5C4)c3)[nH]c12` [compound 96]: the IC50 is 40 nM in experiment [1] and 200 nM in experiment [2].

As for `Cc1cc(-c2ncc[nH]2)cnc1C(NC(=O)c1cc2cccc(C)c2[nH]1)C1CC1` (stereo not drawn) [compound 445], the figures for the IC50 in experiment [1] and in experiment [2] (Homo sapiens) were 1400 nM and 5200 nM, respectively.

Regarding `Cc1ccc(F)c2cc(C(=O)N[C@@H]3CCC[C@H](N4CC5(CNC(=O)C5)C4)C3)[nH]c12` [compound 897], the figures for the IC50 in experiment [1] and in experiment [2] (Homo sapiens) were 10 nM and 100 nM, respectively.

`CC(=O)N1CC2CC1CN2C1CCCC(NC(=O)c2cc3c(F)ccc(C)c3[nH]2)C1` (stereo not drawn) [compound 937]: the IC50 in experiment [1] was 6800 nM; in experiment [2], more than 2000 nM.

Turning to `Cc1ccc(F)c2cc(C(=O)Nc3cccc(N4CC[C@@H](N(C)C)C4)c3)[nH]c12` [compound 94], the IC50 in experiment [1] stood at 20 nM; in experiment [2], 200 nM.

As to `Cc1ccc(F)c2cc(C(=O)N[C@H]3CCC[C@@H](c4cncnc4)C3)[nH]c12` [compound 131], the IC50 in experiment [1] amounted to 100 nM; in experiment [2] (Homo sapiens) it was 300 nM.

In the case of `Cc1cccnc1C(CCC(=O)N1CCOCC1)NC(=O)c1cc2c(F)ccc(C)c2[nH]1` (stereo not drawn) [compound 334], the figures for the IC50 in experiment [1] and in experiment [2] (Homo sapiens) were 700 nM and 1600 nM, respectively.

Regarding `Cc1cccnc1C(CC1CC1)NC(=O)c1cc2cccc(C)c2[nH]1` (stereo not drawn) [compound 500], the IC50 in experiment [1] was found to be 3000 nM; in experiment [2], 14500 nM.

Take `Cc1ccc(F)c2cc(C(=O)Nc3cc(Cl)cc(N4CCC(N(C)C)C4)c3)[nH]c12` (stereo not drawn) [compound 120]: the IC50 came out at 6 nM in experiment [1] and 300 nM in experiment [2] (Homo sapiens).

Regarding `Cc1ccc(F)c2cc(C(=O)Nc3cccc(-c4cccnc4)c3)[nH]c12` [compound 137], the IC50 worked out at 50 nM in experiment [1] and 300 nM in experiment [2] (Homo sapiens).

In the case of `Cc1cccc2cc(C(=O)Nc3cccc(N4CCN(S(=O)(=O)CCN)CC4)n3)[nH]c12` [compound 443], the IC50 amounted to 600 nM in experiment [1] and 5100 nM in experiment [2] (Homo sapiens).

For the compound `Cc1ccc(F)c2cc(C(=O)Nc3cccc([C@@H]4CC[C@@H](N(C)C)C4)c3)[nH]c12` [compound 217], the figures for the IC50 in experiment [1] and in experiment [2] were 10 nM and 500 nM, respectively.

On to `Cc1ccc(F)c2cc(C(=O)Nc3cccc(N4CCN(C(=O)C5CC5)CC4)c3)[nH]c12` [compound 93], for which the IC50 came out at 60 nM in experiment [1] and 200 nM in experiment [2].

For the compound `Cc1ccc(F)c2cc(C(=O)NC3CCCC(N4CCN(C(=O)C(C)C)C(C(F)(F)F)C4)C3)[nH]c12` (stereo not drawn) [compound 1175], the results for the IC50 in experiment [1] and in experiment [2] were 8400 nM and more than 2000 nM, respectively.

Regarding `Cc1ccc(F)c2cc(C(=O)Nc3cccc4cccnc34)[nH]c12` [compound 609], the IC50 in experiment [1] was more than 50000 nM; in experiment [2] it was more than 25000 nM.
